According to US10556005B2 (priority 2011, dated 2020):

Legend:
[1] = Observation of administered mice for abnormality / induration at topical area; format: in vivo; conditions: mice administered with citrulline; compared with induration seen where Alum is administered
[2] = tested on: HA antigen of influenza virus (strain: A/Solomon); design: species or system BALB/c mice; conditions: mouse, in vivo, sc

## NC(=O)NCCCC(N)C(=O)O (centres unmarked) [citrulline, 2-amino-5-(carbamoylamino)-pentanoic acid]
[1]
  abnormality / induration in mice administered: neither abnormality nor induration
[2]
  adjuvant effect compared with Alum adjuvant (in words): same extent as that of Alum adjuvant
